Test results published in ChEMBL document CHEMBL2375305, “Synthesis of novel triterpene and N-allylated/N-alkylated niacin hybrids as α-glucosidase inhibitors” (Eur J Med Chem, 2013).
Calls of active or inactive are those of the source. The calls are words filed in the database; no cut-off is given here.

Tests used:
[1] = species on record: Homo sapiens; experiment: (§1) Inhibition of alpha-glucosidase (unknown origin) using PNPG as substrate incubated for 10 mins prior to substrate addition measured every 30 secs for 5 mins relative to control
[2] = species on record: Homo sapiens; experiment: Inhibition of alpha-glucosidase (unknown origin) using PNPG as substrate at 100 uM incubated for 10 mins prior to substrate addition measured every 30 secs for 5 mins relative to control
[3] = species on record: Homo sapiens; experiment: Ratio of compound activity to acarbose activity for inhibition of alpha-glucosidase (unknown origin)
[4] = species on record: Homo sapiens; experiment: Non-competitive inhibition of alpha-glucosidase (unknown origin) using PNPG as substrate at 2 to 6 uM by Lineweaver-Burk plot analysis
[5] = species on record: Homo sapiens; experiment: Binding affinity to alpha-glucosidase (unknown origin) assessed as loss in secondary structure at 50 to 250 uM measured every 1 sec for 1 to 2 mins by CD spectroscopic analysis
[6] = system: Rattus norvegicus; experiment: Antihyperglycemic activity in sucrose-loaded STZ-induced diabetic rat model assessed as reduction in blood glucose level at 100 mg/kg, po administered 30 mins followed by sucrose administration measured after 5 hrs relative to vehicle-treated control; type: functional; parameters: scale not given: the % may be the effect or the level left
[7] = as §1; parameters: species or system Homo sapiens

Row | SMILES | inhibition [1] | inhibition [2] [%] | also measured
1 | CCCCCCCCCCCCC[n+]1cccc(C(=O)O[C@H]2CC[C@]3(C)[C@H]4CC=C5[C@@H]6[C@@H](C)[C@H](C)CC[C@]6(C)CC[C@@]5(C)[C@]4(C)CC[C@H]3C2(C)C)c1 | Dose-dependent effect |  | 
2 | C=C(C)[C@@H]1CCC2(C)CC[C@]3(C)[C@@H](CC[C@@H]4[C@@]5(C)CC[C@H](OC(=O)c6ccc[n+](CCCCCCCCCCCC)c6)C(C)(C)[C@@H]5CC[C@]43C)[C@H]12 (single isomer, unassigned) |  | 8.8 | 
3 | CCCCCCCCCCCC[n+]1cccc(C(=O)O[C@H]2CC[C@]3(C)[C@H]4CC=C5[C@@H]6[C@@H](C)[C@H](C)CC[C@]6(C)CC[C@@]5(C)[C@]4(C)CC[C@H]3C2(C)C)c1 | Dose-dependent effect |  | 
4 | CC(C)=CC[n+]1cccc(C(=O)O[C@H]2CC[C@]3(C)[C@H]4CC=C5[C@@H]6[C@@H](C)[C@H](C)CC[C@]6(C)CC[C@@]5(C)[C@]4(C)CC[C@H]3C2(C)C)c1.[Br-] | Dose-dependent effect |  | Ratio [3]: 10; inhibition [4]: Active; Activity [5]: Active; Activity [6]: 19.9%; IC50 [7]: 5 µM
5 | C=C(C)[C@@H]1CC[C@]2(C)CC[C@]3(C)[C@@H](CC[C@@H]4[C@@]5(C)CC[C@H](OC(=O)c6ccc[n+](CCCCCCCCCCCCCCCC)c6)C(C)(C)[C@@H]5CC[C@]43C)[C@H]12 |  | 4.5 | 

Second part, led by results:

Row | inhibition [1] | inhibition [2] [%] | SMILES | also measured
6 |  | 3.8 | C=C(C)[C@@H]1CC[C@]2(C)CC[C@]3(C)[C@@H](CC[C@@H]4[C@@]5(C)CC[C@H](OC(=O)c6ccc[n+](C/C=C(\C)CCC=C(C)C)c6)C(C)(C)[C@@H]5CC[C@]43C)[C@H]12 | 
7 | Dose-dependent effect |  | CCCCCCCCCCCCCCCC[n+]1cccc(C(=O)O[C@H]2CC[C@]3(C)[C@H]4CC=C5[C@@H]6[C@@H](C)[C@H](C)CC[C@]6(C)CC[C@@]5(C)[C@]4(C)CC[C@H]3C2(C)C)c1 | 
8 |  | -4.4 | C=C(C)[C@@H]1CC[C@]2(C)CC[C@]3(C)[C@@H](CC[C@@H]4[C@@]5(C)CC[C@H](OC(=O)c6ccc[n+](CC=C(C)C)c6)C(C)(C)[C@@H]5CC[C@]43C)[C@H]12 | 
